Results as given in the supplement of paper PMC10307832.

What was measured:
Assay in all cases: relative viability (nuclei count vs DMSO), 5 days (fraction); higher = more cells survive
[1] = compound: CC(C)C[C@H](NC(=O)[C@H](CCc1ccccc1)NC(=O)CN1CCOCC1)C(=O)N[C@@H](Cc1ccccc1)C(=O)N[C@@H](CC(C)C)C(=O)[C@@]1(C)CO1 [Carfilzomib] + CC(=O)c1c(C)c2cnc(Nc3ccc(N4CCNCC4)cn3)nc2n(C2CCCC2)c1=O [Palbociclib] (partner 0.5 µM)
Summary of the method: (§1)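 The day after seeding in 1536-well plates, lung cancer cell lines were treated by pin tool with a single drug, or with a fixed anchor-drug dose together with five library-drug doses (not always all listed) in √10 steps. After 5 days, a combined fix-and-stain solution (final 0.05% Triton X-100, 1% formaldehyde, 1 ug/ml Hoechst) was added. Nuclei counted on 4× images gave relative viability as treated counts over vehicle counts, reported as the median of duplicate plates.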

Carfilzomib + Pictilisib = compound: CC(C)C[C@H](NC(=O)[C@H](CCc1ccccc1)NC(=O)CN1CCOCC1)C(=O)N[C@@H](Cc1ccccc1)C(=O)N[C@@H](CC(C)C)C(=O)[C@@]1(C)CO1 [Carfilzomib] + CS(=O)(=O)N1CCN(Cc2cc3nc(-c4cccc5[nH]ncc45)nc(N4CCOCC4)c3s2)CC1 [Pictilisib] (partner 1 µM)
Summary of the method: as §1

Carfilzomib + Tozasertib = compound: CC(C)C[C@H](NC(=O)[C@H](CCc1ccccc1)NC(=O)CN1CCOCC1)C(=O)N[C@@H](Cc1ccccc1)C(=O)N[C@@H](CC(C)C)C(=O)[C@@]1(C)CO1 [Carfilzomib] + Cc1cc(Nc2cc(N3CCN(C)CC3)nc(Sc3ccc(NC(=O)C4CC4)cc3)n2)n[nH]1 [Tozasertib] (partner 0.1 µM)
Summary of the method: as §1

Crizotinib + Trametinib = compound: C[C@@H](Oc1cc(-c2cnn(C3CCNCC3)c2)cnc1N)c1c(Cl)ccc(F)c1Cl [Crizotinib] + CC(=O)Nc1cccc(-n2c(=O)n(C3CC3)c(=O)c3c(Nc4ccc(I)cc4F)n(C)c(=O)c(C)c32)c1 [Trametinib] (partner 0.02 µM)
Summary of the method: as §1

Cell Line	relative viability ([1]; first compound 0.001 µM)	relative viability ([1]; first compound 0.003162 µM)	relative viability ([1]; first compound 0.01 µM)	relative viability ([1]; first compound 0.03162 µM)	relative viability ([1]; first compound 0.1 µM)	relative viability (Carfilzomib + Pictilisib; first compound 0.001 µM)	relative viability (Carfilzomib + Pictilisib; first compound 0.003162 µM)	relative viability (Carfilzomib + Pictilisib; first compound 0.01 µM)	relative viability (Carfilzomib + Pictilisib; first compound 0.03162 µM)	relative viability (Carfilzomib + Pictilisib; first compound 0.1 µM)	relative viability (Carfilzomib + Tozasertib; first compound 0.001 µM)	relative viability (Carfilzomib + Tozasertib; first compound 0.003162 µM)	relative viability (Carfilzomib + Tozasertib; first compound 0.01 µM)	relative viability (Carfilzomib + Tozasertib; first compound 0.03162 µM)	relative viability (Carfilzomib + Tozasertib; first compound 0.1 µM)	relative viability (Crizotinib + Trametinib; first compound 0.01 µM)	relative viability (Crizotinib + Trametinib; first compound 0.03162 µM)	relative viability (Crizotinib + Trametinib; first compound 0.1 µM)	relative viability (Crizotinib + Trametinib; first compound 0.3162 µM)	relative viability (Crizotinib + Trametinib; first compound 1 µM)
UMC-11	0.378	0.325	0.343	0.343	0.277	0.608	0.956	0.778	0.648	0.336	0.206	0.202	0.205	0.202	0.224	0.7	0.751	0.683	0.227	0.985
EMC-BAC-2	0.531	0.539	0.51	0.455	0.316	0.503	0.612	0.586	0.574	0.258	0.284	0.298	0.305	0.212	0.194	0.865	0.803	0.914	–	0.893
COR-L 105	0.413	0.414	0.35	0.317	0.329	0.414	0.437	0.346	0.289	0.23	0.328	0.311	0.411	0.263	0.225	0.426	0.463	0.413	0.41	0.43
NCI-H2347	0.463	0.427	0.438	0.382	0.332	0.662	0.623	0.67	0.549	0.318	0.54	–	0.619	0.493	0.151	0.265	0.274	0.292	0.321	0.272
HCC-78	0.431	0.454	0.528	0.439	0.348	0.207	0.194	0.236	0.134	0.117	0.356	0.61	0.401	0.358	0.287	0.631	0.873	0.723	0.706	0.909
NCI-H1650	0.306	0.371	0.209	0.11	0.188	–	0.685	0.284	0.127	0.151	0.42	0.392	0.255	0.139	0.204	0.548	0.605	0.607	0.559	0.58
COR-L23	0.29	0.305	0.211	0.0606	0.064	0.756	0.806	0.678	0.0485	0.0565	0.216	0.319	0.216	0.0505	0.0802	0.567	0.605	0.563	0.525	0.633
NCI-H322M	0.487	0.475	0.543	0.522	0.37	0.491	0.507	0.567	0.538	0.307	0.473	0.52	0.556	0.433	0.337	–	0.507	0.482	0.493	0.554
NCI-H2085	0.501	0.47	0.456	0.371	0.265	0.443	0.45	0.48	0.306	0.269	0.825	0.828	0.786	0.269	0.385	0.515	0.485	0.691	0.479	0.529
NCI-H2023	0.341	0.344	0.405	0.235	0.0653	0.213	0.257	0.263	0.156	0.0927	0.433	0.399	0.352	0.285	0.0853	0.487	0.489	0.484	0.343	0.468
LU99A	0.408	0.402	0.439	0.351	0.188	0.349	0.341	0.331	0.238	0.151	0.282	0.286	0.326	0.306	0.123	0.587	0.527	0.49	0.511	0.522
NCI-H2228	0.466	0.886	0.557	0.104	0.105	0.465	0.468	0.206	0.102	0.115	0.3	0.27	0.289	0.096	0.103	0.415	0.492	0.648	0.3	0.521
NCI-H1395	–	0.676	0.635	0.497	0.31	0.564	0.644	0.593	0.479	0.525	0.746	0.743	0.696	0.505	0.304	0.951	1.05	1.04	0.971	1.1
HCC-15	0.706	0.688	0.751	0.61	0.206	0.596	0.863	0.784	0.522	0.156	0.385	0.393	0.385	0.356	0.0753	0.396	0.346	0.38	–	–
RERF-LC-KJ	1.07	1.04	1.27	0.837	0.193	0.528	0.469	0.675	0.265	0.149	0.501	0.478	0.542	0.377	0.163	0.955	0.885	0.831	0.827	0.905
NCI-H647	0.458	0.45	0.306	0.0189	0.0185	–	0.562	0.397	0.0769	0.036	0.452	0.378	0.171	0.141	0.0292	0.43	0.575	0.435	0.436	0.559
